Patent publication US9969726B2, “Metabotropic glutamate receptor negative allosteric modulators (NAMS) and uses thereof” (Sanford-Burnham Medical Research Institute, priority 2014, dated 2018)
Read-outs that look alike come from different tables or passages of the source.

How the values were obtained:
rat mGlu2 receptor = rat mGlu2 receptor (Rattus norvegicus (Rat), UniProt P31421); assay: mGlu2 in vitro GIRK thallium flux assay; assay type: cell-based; conditions: NAM, EC80 glutamate, HEK-293 GIRK cells
Sequence of rat mGlu2 receptor (P31421 19-872): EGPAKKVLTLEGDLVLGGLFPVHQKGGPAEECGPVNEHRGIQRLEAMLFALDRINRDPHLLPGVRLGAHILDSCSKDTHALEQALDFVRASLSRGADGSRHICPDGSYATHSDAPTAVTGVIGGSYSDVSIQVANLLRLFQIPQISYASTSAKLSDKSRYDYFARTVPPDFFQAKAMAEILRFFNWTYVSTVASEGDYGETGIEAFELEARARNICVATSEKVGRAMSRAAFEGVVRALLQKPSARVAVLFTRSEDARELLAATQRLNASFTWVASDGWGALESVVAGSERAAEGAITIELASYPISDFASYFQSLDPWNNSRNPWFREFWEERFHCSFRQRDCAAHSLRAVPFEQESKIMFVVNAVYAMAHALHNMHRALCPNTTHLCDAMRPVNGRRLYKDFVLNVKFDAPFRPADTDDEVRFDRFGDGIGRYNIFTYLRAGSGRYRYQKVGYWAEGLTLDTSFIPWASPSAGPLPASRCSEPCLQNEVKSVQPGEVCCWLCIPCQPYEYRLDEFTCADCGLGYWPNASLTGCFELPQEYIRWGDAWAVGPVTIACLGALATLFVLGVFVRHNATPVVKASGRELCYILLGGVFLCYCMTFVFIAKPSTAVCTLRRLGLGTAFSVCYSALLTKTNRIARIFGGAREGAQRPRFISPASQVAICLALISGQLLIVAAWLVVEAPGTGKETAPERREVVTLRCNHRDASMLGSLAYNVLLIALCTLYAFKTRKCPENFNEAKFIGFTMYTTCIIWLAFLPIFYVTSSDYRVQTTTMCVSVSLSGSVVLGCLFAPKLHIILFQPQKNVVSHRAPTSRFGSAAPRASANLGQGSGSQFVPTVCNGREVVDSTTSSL
Procedure: (§1) All cell culture reagents were purchased from Invitrogen Corp. (Carlsbad, Calif.) unless otherwise noted. Compound activity at the group II (mGlu2 and mGlu3) mGlus was assessed using thallium flux through GIRK channels. Briefly, cells were plated into 384-well, black-walled, clear-bottomed poly-D-lysine-coated plates at a density of 15,000 cells/20 μL/well in DMEM containing 10% dialyzed FBS, 20 mM HEPES, and 100 units/mL penicillin/streptomycin (assay media). Plated cells were incubated overnight at 37° C. in the presence of 5% CO2. […] Cells were incubated for 1 h at room temperature, and the dye exchanged to assay buffer using an ELX405, leaving 20 μL/well. Test compounds were diluted to 2 times their final desired concentration in assay buffer (0.3% DMSO final concentration). […] Cell plates and compound plates were loaded onto a kinetic imaging plate reader (FDSS 6000 or 7000; Hamamatsu Corporation, Bridgewater, N.J.). Appropriate baseline readings were taken (10 images at 1 Hz; excitation, 470±20 nm; emission, 540±30 nm) and test compounds were added in a 20 μL volume and incubated for either 2.5 min or 60 min as indicated before the addition of 10 μL of thallium buffer with or without agonist. After the addition of agonist, data were collected for approximately an additional 2.5 min. Data were analyzed using Excel (Microsoft Corp, Redmond, Wash.). The slope of the fluorescence increase beginning 5 s after thallium/agonist addition and ending 15 s after thallium/agonist addition was calculated, corrected to vehicle and maximal agonist control slope values, and plotted in using either XLfit (ID Business Solutions Ltd) or Prism software (GraphPad Software, San Diego, Calif.) to generate concentration-response curves. Potencies were calculated from fits using a four-point parameter logistic equation. For concentration-response curve experiments, compounds were serially diluted 1:3 into 10 point concentration response curves and were transferred to daughter plates using an Echo acoustic plate reformatter (Labcyte, Sunnyvale, Calif.). Test compounds were applied and followed by EC80 concentrations of glutamate.

rat mGlu3 receptor = rat mGlu3 receptor (Rattus norvegicus (Rat), UniProt P31422); assay: mGlu3 in vitro GIRK thallium flux assay; assay type: cell-based; conditions: NAM; 2.5 min compound incubation; EC80 glutamate; HEK-293 GIRK cells
Sequence of rat mGlu3 receptor (P31422 23-879): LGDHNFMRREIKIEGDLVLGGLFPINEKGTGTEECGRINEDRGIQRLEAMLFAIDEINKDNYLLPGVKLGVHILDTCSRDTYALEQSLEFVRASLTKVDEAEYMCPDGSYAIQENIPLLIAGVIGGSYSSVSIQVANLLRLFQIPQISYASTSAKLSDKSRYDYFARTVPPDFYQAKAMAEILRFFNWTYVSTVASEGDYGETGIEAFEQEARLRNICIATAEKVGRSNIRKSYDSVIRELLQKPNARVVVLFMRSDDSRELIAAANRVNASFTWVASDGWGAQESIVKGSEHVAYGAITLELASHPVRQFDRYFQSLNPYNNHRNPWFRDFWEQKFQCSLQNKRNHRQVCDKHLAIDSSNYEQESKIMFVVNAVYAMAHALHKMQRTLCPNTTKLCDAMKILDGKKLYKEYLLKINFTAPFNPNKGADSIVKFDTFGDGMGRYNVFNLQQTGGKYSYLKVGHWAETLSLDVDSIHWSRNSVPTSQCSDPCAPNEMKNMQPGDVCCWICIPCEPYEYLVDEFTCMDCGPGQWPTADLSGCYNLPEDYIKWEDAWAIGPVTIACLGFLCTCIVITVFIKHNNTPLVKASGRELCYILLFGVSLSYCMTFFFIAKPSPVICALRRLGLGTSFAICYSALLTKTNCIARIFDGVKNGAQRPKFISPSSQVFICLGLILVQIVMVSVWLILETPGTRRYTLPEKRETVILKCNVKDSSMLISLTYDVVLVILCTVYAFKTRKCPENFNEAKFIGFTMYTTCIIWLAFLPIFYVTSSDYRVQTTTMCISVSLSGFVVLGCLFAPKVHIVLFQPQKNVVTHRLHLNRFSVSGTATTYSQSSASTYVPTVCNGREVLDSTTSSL
Procedure: as §1

[1] = 2.5 min compound incubation, read-out: mGlu2 EC50 (μM) (2.5 min)
[2] = mGlu2 EC50 (μM) (60 min), 60 min compound incubation
[3] = read-out: mGlu2 EC50 (μM) (60 min), 60 min compound incubation

EC50 (rat mGlu2 receptor; [2]) [µM]	Structure (SMILES)	EC50 (rat mGlu2 receptor; [1]) [µM]	EC50 (rat mGlu3 receptor) [µM]	EC50 (rat mGlu2 receptor; [3]) [µM]
–	Cc1cccc(-c2ccc3c(c2)NC(=O)CC(c2ccnc(Cl)c2)=N3)c1 [Example 193, 4-(2-Chloropyridin-4-yl)-8-(m-tolyl)-1,3-dihydro-2H-benzo[b][1,4]diazepin-2-one]	> 10	> 10	0.95
3.67	O=C(O)c1cccc(-c2cccc(-c3nc(-c4cccs4)n(-c4ccccc4)n3)c2)c1 [Example 53, 3′-(1-Phenyl-5-(thiophen-2-yl)-1H-1,2,4-triazol-3-yl)-[1,1′-biphenyl]-3-carboxylic Acid]	> 10	4.29	–
–	Cc1cc2c(cc1C(F)(F)F)NC(=O)CC(c1cccc(Oc3cc(F)cc(F)c3)c1)=N2 [Example 146, 4-(3-(3,5-difluorophenoxy)phenyl)-7-methyl-8-(trifluoromethyl)-1H-benzo[b][1,4]diazepin-2(3H)-one]	> 10	> 10	> 10
–	O=C(O)c1cc(-c2cccc(-c3nc(-c4cccs4)cc(C(F)(F)F)n3)c2)ccc1F [Example 87A, 4-Fluoro-3′-(4-(thiophen-2-yl)-6-(trifluoromethyl)pyrimidin-2-yl)biphenyl-3-carboxylic Acid]	1.12	1.26	0.24
–	O=C(O)c1cc(-c2cccc(-c3nc(-c4sccc4Cl)cc(C(F)(F)F)n3)c2)ccc1F [Example 107, 3′-(4-(3-Chlorothiophen-2-yl)-6-(trifluoromethyl)pyrimidin-2-yl)-4-fluorobiphenyl-3-carboxylic Acid]	4.53	> 10	–
2.5	O=C(O)c1cc(-c2cccc(-c3csc(-c4ccoc4)n3)c2)ccc1F [Example 4, 4-Fluoro-3′-(2-(furan-3-yl)thiazol-4-yl)biphenyl-3-carboxylic Acid]	2.26	> 10	–
–	COc1ccc(-c2ccc3c(c2)NC(=O)CC(c2ccnc(Cl)c2)=N3)cc1OC [Example 195, 4-(2-Chloropyridin-4-yl)-8-(3,4-dimethoxyphenyl)-1,3-dihydro-2H-benzo[b][1,4]diazepin-2-one]	3.83	1.39	2.62
0.8	O=C(O)c1cc(-c2cccc(-c3csc(-c4ccccc4)n3)c2)ccc1Cl [Example 24, 4-Chloro-3′-(2-phenylthiazol-4-yl)biphenyl-3-carboxylic Acid]	0.57	0.79	–
> 30	O=C(O)c1cccc(-c2cccc(-c3n[nH]c(-c4ccccc4)n3)c2)c1 [Example 65, 3′-(5-Phenyl-1H-1,2,4-triazol-3-yl)-[1,1′-biphenyl]-3-carboxylic Acid]	> 10	> 30	–
–	N#Cc1cc(C2=Nc3ccc(C#Cc4ccc(F)cc4)cc3NC(=O)C2)ccn1 [Example 185, 4-(8-((4-Fluorophenyl)ethynyl)-2-oxo-2,3-dihydro-1H-benzo[b][1,4]diazepin-4-yl)picolinonitrile]	> 10	1.45	–
> 10	O=C(O)c1cccc(-c2cccc(-c3nc(-c4ccccc4)n(-c4cccc5ccccc45)n3)c2)c1 [Example 57, 3′-(1-(Naphthalen-1-yl)-5-phenyl-1H-1,2,4-triazol-3-yl)-[1,1′-biphenyl]-3-carboxylic Acid]	> 10	> 10	–
> 10	O=C(O)c1cccc(-c2cccc(-c3nc(-c4ccccc4)n(-c4cccc(F)c4)n3)c2)c1 [Example 56, 3′-(1-(3-Fluorophenyl)-5-phenyl-1H-1,2,4-triazol-3-yl)-[1,1′-biphenyl]-3-carboxylic Acid]	3.22	> 10	–
–	Cc1cc(-c2ccoc2)nc(-c2cccc(-c3ccc(F)c(C(=O)O)c3)c2)n1 [Example 117, 4-Fluoro-3′-(4-(furan-3-yl)-6-methylpyrimidin-2-yl)biphenyl-3-carboxylic acid]	0.08	0.28	0.07
0.1	O=C(O)c1cc(F)cc(-c2cccc(-c3nsc(-c4ccccc4)n3)c2)c1 [Example 40, 5-Fluoro-3′-(5-phenyl-1,2,4-thiadiazol-3-yl)biphenyl-3-carboxylic Acid]	0.4	2.78	–
1.92	O=C(O)c1cc(-c2cccc(-c3csc(-c4cc5ccccc5s4)n3)c2)ccc1F [Example 8, 3′-(2-(Benzo[b]thiophen-2-yl)thiazol-4-yl)-4-fluorobiphenyl-3-carboxylic Acid]	> 10	> 10	–
–	O=C(O)c1cc(F)cc(-c2cccc(-c3nc(-c4ccccc4)cc(C(F)(F)F)n3)c2)c1 [Example 104, 5-Fluoro-3′-(4-phenyl-6-(trifluoromethyl)pyrimidin-2-yl)biphenyl-3-carboxylic Acid]	1.44	1.9	0.24
> 10	O=C(O)c1cccc(-c2cccc(-c3csc(/C=C/c4ccccc4)n3)c2)c1 [Example 36, (E)-3′-(2-Styrylthiazol-4-yl)biphenyl-3-carboxylic Acid]	3.47	> 10	–
–	O=C(O)c1cc(-c2cccc(-c3nc(-c4ccc(Cl)cc4F)cc(C(F)(F)F)n3)c2)ccc1F [Example 110, 3′-(4-(4-Chloro-2-fluorophenyl)-6-(trifluoromethyl)pyrimidin-2-yl)-4-fluorobiphenyl-3-carboxylic Acid]	4.08	5.34	0.65
> 30	O=C(O)c1ccoc1-c1cccc(-c2nc(-c3ccccc3)n(-c3ccccc3)n2)c1 [Example 62, 2-(3-(1,5-Diphenyl-1H-1,2,4-triazol-3-yl)phenyl)furan-3-carboxylic Acid]	> 10	0.21	–
> 10	Cc1nc(-c2cccc(-c3ccc(F)c(C(=O)O)c3)c2)cs1 [Example 6, 4-Fluoro-3′-(2-methylthiazol-4-yl)biphenyl-3-carboxylic Acid]	> 10	> 10	–
–	O=C(O)c1cc(-c2cccc(-c3nc(-c4ccc[nH]4)cc(C(F)(F)F)n3)c2)ccc1F [Example 106, 3′-(4-(1H-Pyrrol-2-yl)-6-(trifluoromethyl)pyrimidin-2-yl)-4-fluorobiphenyl-3-carboxylic Acid]	1.19	5.06	1.42
–	O=C(O)c1cc(-c2cccc(Nc3nc(-c4ccco4)cc(C(F)(F)F)n3)c2)ccc1F [Example 127, 4-Fluoro-3′-(4-(furan-2-yl)-6-(trifluoromethyl)pyrimidin-2-ylamino)biphenyl-3-carboxylic Acid]	5.33	3.9	> 10
2.71	O=C(O)c1cccc(-c2cccc(-c3nc(-c4ccccc4)n(Cc4ccccc4)n3)c2)c1 [Example 54, 3′-(1-Benzyl-5-phenyl-1H-1,2,4-triazol-3-yl)-[1,1′-biphenyl]-3-carboxylic Acid]	> 10	3.9	–
> 10	O=C(O)c1cc(-c2ccc(-c3csc(-c4ccccc4)n3)s2)ccc1F [Example 10, 2-Fluoro-5-(5-(2-phenylthiazol-4-yl)thiophen-2-yl)benzoic acid]	> 10	> 10	–
–	O=C(O)c1ccc(-c2cccc(-c3nc(-c4ccc(C(F)(F)F)nc4)cc(C(F)(F)F)n3)c2)c(Cl)c1 [Example 78, 2-Chloro-3′-(4-(trifluoromethyl)-6-(6-(trifluoromethyl)pyridin-3-yl)pyrimidin-2-yl)biphenyl-4-carboxylic Acid]	3.49	6.32	1.18

Structure (SMILES)	EC50 (rat mGlu2 receptor; [2]) [µM]	EC50 (rat mGlu2 receptor; [1]) [µM]	EC50 (rat mGlu3 receptor) [µM]	EC50 (rat mGlu2 receptor; [3]) [µM]
Cc1cc2c(cc1C(F)(F)F)NC(=O)CC(c1cccc(Oc3ncccn3)c1)N2 (racemic) [Example 164, 7-Methyl-4-(3-(pyrimidin-2-yloxy)phenyl)-8-(trifluoromethyl)-4,5-dihydro-1H-benzo[b][1,4]diazepin-2(3H)-one]	1.56	> 10	5.57	–
ON=Cc1cc(-c2cccc(-c3csc(-c4ccccc4)n3)c2)ccc1F [Example 20, 4-Fluoro-3′-(2-phenylthiazol-4-yl)biphenyl-3-carbaldehyde oxime]	> 10	> 30	> 30	–
O=C(O)c1cccc(-c2cccc(-c3coc(-c4ccccc4)c3)c2)c1 [Example 46, 3′-(5-phenylfuran-3-yl)biphenyl-3-carboxylic Acid]	> 10	> 10	> 30	–
